{
  "source": "patent US9771378B2",
  "about": "(Denali Therapeutics, Inc., priority 2014, dated 2017)",
  "data": [
    {"tested_on": "Aβ42 (human neuroglioma H4 cells expressing human wild type APP751)", "experiment": "In vitro cell screening assay with sandwich ELISA quantification of Aβ42 peptide", "type": "cell-based", "conditions": "H4 cells stably expressing human wild type APP751; Pro293 chemically defined medium; compounds 0.003-10 μM; incubated overnight (16-18 h); supernatant Aβ42 by sandwich ELISA; normalized to DMSO and DAPT; read-out: Aβ42 H4 Prot Fre IC50", "in_short": "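H4 neuroglioma cells stably expressing human wild-type APP751 were treated in Pro293 medium with compounds (0.003-10 μM, 0.33% DMSO) for 16-18 h at 37° C. Secreted Aβ42 measured by sandwich ELISA (C-terminal capture, 4G8-HRP detection, TMB, 450 nm). IC50 by variable-slope sigmoidal regression on percent of DMSO control.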", "units": {"IC50": "nM"}, "values": [
      {"compound": "Cc1cn(-c2ccc(Nc3ncc4c(n3)N(C)C(C)CO4)cc2C(F)F)cn1", "note": "(single isomer, unassigned; (+)) [Example 214A]", "IC50": "> 3000"},
      {"compound": "COc1ccc(C2COc3cnc(Nc4cnc(-n5cnc(C)c5)c(OC)c4)nc3N2C)c(C)c1", "note": "(single isomer, unassigned; (+)) [Example 215A]", "IC50": 16},
      {"compound": "COc1cc(Nc2ncc3c(n2)N(C)C(C2CCC(F)(F)CC2)CO3)ccc1-n1cnc(C)c1", "note": "(single isomer, unassigned; (+)) [Example 216B]", "IC50": 33},
      {"compound": "COc1cc(Nc2ncc3c(n2)N(C)C(C2CC(F)(F)C2)CO3)cnc1-n1cnc(C)c1", "note": "(single isomer, unassigned; (+)) [Example 219A]", "IC50": 25},
      {"compound": "COc1cc(Nc2ncc3c(n2)N(C)C(c2cc(F)cc(F)c2)CO3)ncc1-n1cnc(C)c1", "note": "(single isomer, unassigned; (+)) [Example 220B]", "IC50": 44},
      {"compound": "COc1cc(Nc2ncc3c(n2)N(C)C(C2CCC(F)(F)CC2)CO3)cnc1-n1cnc(C)c1", "note": "(single isomer, unassigned; (+)) [Example 221A]", "IC50": 24},
      {"compound": "Cc1cn(-c2ccc(Nc3ncc4c(n3)N(C)C(c3cc(F)cc(F)c3)CO4)cc2C(F)F)cn1", "note": "(single isomer, unassigned; (+)) [Example 222A]", "IC50": 361},
      {"compound": "Cc1cn(-c2ccc(Nc3ncc4c(n3)N(C)C(c3cc(F)cc(F)c3)CO4)cc2OC(F)(F)F)cn1", "note": "(single isomer, unassigned; (+)) [Example 223B]", "IC50": "> 3000"},
      {"compound": "CN1c2nc(Nc3ccc(C#N)cc3)ncc2OCC1C(F)(F)F", "note": "(single isomer, unassigned; (+)) [Example 226A, (+)-4-((8-methyl-7-(trifluoromethyl)-7,8-dihydro-6H-pyrimido [5,4-b] [1, 4]oxazin-2-yl)amino) benzonitrile]", "IC50": "> 3000"},
      {"compound": "COc1cc(Nc2ncc3c(n2)N(C)C(C(F)(F)F)CO3)ccc1-n1cnc(Cl)c1", "note": "(single isomer, unassigned; (+)) [Example 228A]", "IC50": 331},
      {"compound": "Cc1cn(-c2ncc(Nc3ncc4c(n3)N(C)C(C(F)(F)F)CO4)cc2Cl)cn1", "note": "(single isomer, unassigned; (+)) [Example 229B]", "IC50": 2850},
      {"compound": "COc1cc(Nc2ncc3c(n2)N(C)C(C(F)(F)F)CO3)ccc1C#N", "note": "(single isomer, unassigned; (+)) [Example 230A, (+)-2-methoxy-4-((8-methyl-7-(trifluoromethyl)-7,8-dihydro-6H-pyrimido [5,4-b] [1, 4]oxazin-2-yl)amino) benzonitrile]", "IC50": "> 3000"},
      {"compound": "COc1cc(Nc2ncc3c(n2)N(C)C(C2CCC(F)(F)CC2)CO3)cnc1-c1cnn(C)c1", "note": "(single isomer, unassigned; (+)) [Example 231A]", "IC50": 342},
      {"compound": "Cc1cn(-c2ccc(Nc3ncc4c(n3)N(C)C(C(F)(F)F)CO4)cc2C#N)cn1", "note": "(single isomer, unassigned; (+)) [Example 232A, (+)-2-(4-methyl-1H-imidazol-1-yl)-5-((8-methyl-7-(trifluoromethyl)-7,8-dihydro-6H-pyrimido [5,4-b] [1, 4]oxazin-2-yl)amino) benzonitrile]", "IC50": 280},
      {"compound": "CN1c2nc(Nc3ccc(C#N)cc3)ncc2OCC1c1cc(F)cc(F)c1", "note": "(single isomer, unassigned; (+)) [Example 233A, (+)-4-((7-(3,5-difluorophenyl)-8-methyl-7,8-dihydro-6H-pyrimido [5,4-b] [1, 4]oxazin-2-yl)amino) benzonitrile]", "IC50": 888},
      {"compound": "COc1cc(Nc2ncc3c(n2)N(C)C(C(F)(F)F)CO3)ncc1-n1cnc(C)c1", "note": "(single isomer, unassigned; (+)) [Example 236A]", "IC50": "> 3000"},
      {"compound": "COc1cc(Nc2ncc3c(n2)N(C)C(c2cc(F)cc(F)c2)CO3)ccc1C#N", "note": "(single isomer, unassigned; (+)) [Example 237B, (+)-4-((7-(3,5-difluorophenyl)-8-methyl-7,8-dihydro-6H-pyrimido [5,4-b] [1, 4]oxazin-2-yl)amino)-2-methoxybenzonitrile]", "IC50": 226},
      {"compound": "COc1cc(Nc2ncc3c(n2)N(C)C(CC(F)(F)F)CO3)cnc1-n1cnc(C)c1", "note": "(single isomer, unassigned; (+)) [Example 238B]", "IC50": 66},
      {"compound": "COc1cc(Nc2ncc3c(n2)N(C)C(C2CCS(=O)(=O)CC2)CO3)ccc1-n1cnc(C)c1", "note": "(single isomer, unassigned; (+)) [Example 239B, (+)-4-(2-((3-methoxy-4-(4-methyl-1H-imidazol-1-yl)phenyl)amino)-8-methyl-7,8-dihydro-6H-pyrimido [5,4-b] [1, 4]oxazin-7-yl) tetrahydro-2H-thiopyran 1,1-dioxide]", "IC50": 380},
      {"compound": "COc1cc(Nc2ncc3c(n2)N(C)C(C2COC2)CO3)ccc1-n1cnc(C)c1", "note": "(single isomer, unassigned; (+)) [Example 241B]", "IC50": 342},
      {"compound": "COc1cc(Nc2ncc3c(n2)N(C)C(C(F)(F)F)CO3)ccc1-n1cnc(C)n1", "note": "(single isomer, unassigned; (+)) [Example 242B]", "IC50": 1860},
      {"compound": "COc1cc(Nc2ncc3c(n2)N(C)C(C2COC2)CO3)cnc1-n1cnc(C)c1", "note": "(single isomer, unassigned; (+)) [Example 243A]", "IC50": 601},
      {"compound": "COc1cc(Nc2ncc3c(n2)N(C)C(c2cc(F)cc(F)c2)CO3)ccc1-n1cnc(C)n1", "note": "(single isomer, unassigned; (+)) [Example 244A]", "IC50": 23},
      {"compound": "COc1cc(Nc2ncc3c(n2)N(C)C(C2(C(F)(F)F)CC2)CO3)ccc1-n1cnc(C)c1", "note": "(single isomer, unassigned; (+)) [Example 245B]", "IC50": 22},
      {"compound": "COc1cc(Nc2ncc3c(n2)N(C)C(C2(C(F)(F)F)CC2)CO3)cnc1-n1cnc(C)c1", "note": "(single isomer, unassigned; (+)) [Example 247B]", "IC50": 5},
      {"compound": "COc1cc(Nc2ncc3c(n2)N2CCCC2CO3)ccc1-n1cnc(C)c1", "note": "(single isomer, unassigned; (+)) [Example 290B, (+)-N-(3-methoxy-4-(4-methyl-1H-imidazol-1-yl)phenyl)-6a, 7,8,9-tetrahydro-6H-pyrimido [5,4-b] pyrrolo [1,2-d] [1, 4] oxazin-2-amine]", "IC50": 151},
      {"compound": "COc1cc(Nc2ncc3c(n2)N2C(=O)CCC2CO3)cnc1-n1cnc(C)c1", "note": "(single isomer, unassigned; (+)) [Example 302A, (+)-2-((5-methoxy-6-(4-methyl-1H-imidazol-1-yl)pyridin-3-yl)amino)-6,6a, 7,8-tetrahydro-9H-pyrimido [5,4-b] pyrrolo [1,2-d] [1, 4] oxazin-9-one]", "IC50": "> 3000"},
      {"compound": "COc1cc(Nc2ncc3c(n2)N2CCC(F)(F)C2CO3)ccc1-n1cnc(C)c1", "note": "(single isomer, unassigned; (+)) [Example 304B, (+)-7,7-difluoro-N-(3-methoxy-4-(4-methyl-1H-imidazol-1-yl)phenyl)-6a, 7,8,9-tetrahydro-6H-pyrimido [5,4-b] pyrrolo [1,2-d] [1, 4] oxazin-2-amine]", "IC50": 75},
      {"compound": "COc1cc(Nc2ncc3c(n2)N2CCC(F)(F)C2CO3)cnc1-n1cnc(C)c1", "note": "(single isomer, unassigned; (+)) [Example 305A, (+)-7,7-difluoro-N-(5-methoxy-6-(4-methyl-1H-imidazol-1-yl)pyridin-3-yl)-6a, 7,8,9-tetrahydro-6H-pyrimido [5,4-b] pyrrolo [1,2-d] [1, 4] oxazin-2-amine]", "IC50": 132},
      {"compound": "Cc1cn(-c2ccc(Nc3ncc4c(n3)N(C)C(c3cc(F)cc(F)c3)CO4)cc2)cn1", "note": "(single isomer, unassigned; (-)) [Example 23A]", "IC50": 2040},
      {"compound": "Cc1cc(-c2ccc(Nc3ncc4c(n3)N(C)C(c3ccccc3)CO4)cc2)ccn1", "note": "(single isomer, unassigned; (-)) [Example 24B]", "IC50": 1020},
      {"compound": "Cc1cn(-c2ccc(Nc3ncc4c(n3)N(C)C(c3ccccc3)CO4)cc2F)cn1", "note": "(single isomer, unassigned; (-)) [Example 25B]", "IC50": 334},
      {"compound": "Cc1cn(-c2ccc(Nc3ncc4c(n3)N(C)C(c3ccccc3)CO4)cc2)cn1", "note": "(single isomer, unassigned; (-)) [Example 26B]", "IC50": 3140},
      {"compound": "Cc1cc(-c2ccc(Nc3ncc4c(n3)N(C)C(c3ccccc3)CO4)cc2F)ccn1", "note": "(single isomer, unassigned; (-)) [Example 27B]", "IC50": 2100},
      {"compound": "Cc1cc(-c2ccc(Nc3ncc4c(n3)N(C)C(c3cc(F)cc(F)c3)CO4)cc2)ccn1", "note": "(single isomer, unassigned; (-)) [Example 28A]", "IC50": 1960},
      {"compound": "Cc1cc(-c2ccc(Nc3ncc4c(n3)N(C)C(c3ccccc3C)CO4)cc2)ccn1", "note": "(single isomer, unassigned; (-)) [Example 29A]", "IC50": 1100},
      {"compound": "COc1cc(Nc2ncc3c(n2)N(C)C(c2cc(F)cc(F)c2)CO3)ccc1-n1cnc(C)c1", "note": "(single isomer, unassigned; (-)) [Example 30A]", "IC50": 177},
      {"compound": "COc1cc(Nc2ncc3c(n2)N(C)C(c2ccccc2C)CO3)ccc1-n1cnc(C)c1", "note": "(single isomer, unassigned; (-)) [Example 31A]", "IC50": 138},
      {"compound": "Cc1cc(-c2ccc(Nc3ncc4c(n3)N(C)C(c3ccccc3C)CO4)cc2F)ccn1", "note": "(single isomer, unassigned; (-)) [Example 32A]", "IC50": 888},
      {"compound": "Cc1cn(-c2ccc(Nc3ncc4c(n3)N(C)C(c3cc(F)cc(F)c3)CO4)cc2F)cn1", "note": "(single isomer, unassigned; (-)) [Example 33B]", "IC50": 389},
      {"compound": "Cc1cn(-c2ccc(Nc3ncc4c(n3)N(C)C(c3ccccc3C)CO4)cc2F)cn1", "note": "(single isomer, unassigned; (-)) [Example 34B]", "IC50": 460},
      {"compound": "COc1cc(Nc2ncc3c(n2)N(C)C(c2ccccc2C)CO3)ccc1-c1ccnc(C)c1", "note": "(single isomer, unassigned; (-)) [Example 35A]", "IC50": 355},
      {"compound": "Cc1cc(-c2ccc(Nc3ncc4c(n3)N(C)C(c3cc(F)c(F)c(F)c3)CO4)cc2F)ccn1", "note": "(single isomer, unassigned; (-)) [Example 36B]", "IC50": 1250},
      {"compound": "Cc1cc(-c2ccc(Nc3ncc4c(n3)N(C)C(c3cc(F)c(F)c(F)c3)CO4)cc2)ccn1", "note": "(single isomer, unassigned; (-)) [Example 37B]", "IC50": 1540}
    ]}
  ]
}
